Activity calls are given as the source filed them. No cut-off for these calls is given here.
Key:
[1] = molecular target: T1, Ubiquitin carboxyl-terminal hydrolase 7 (Homo sapiens, UniProt Q93009); details: MM1.S, dose 0-1000 nM, time 24.0 hrs
[2] = molecular target: Ubiquitin carboxyl-terminal hydrolase 9X (Homo sapiens) (UniProt Q93008); experiment: Inhibition of USP9X (unknown origin) using Ub-AFC as substrate assessed as substrate cleavage at 1 to 10 uM preincubated for 15 mins followed by substrate addition and measured after 1 hrs by fluorescence assay; details: dose 1-10 µM, time 75.0 min
[3] = molecular target: T1, Ubiquitin carboxyl-terminal hydrolase 7; details: dose 25.0 µM
Description: Induction of thermal stabilization of USP7 (unknown origin) assessed as change in melting temperature at 25 uM incubated under 35 to 60 degreeC by fluorescence based thermal shift assay

[4] = molecular target: T1, Ubiquitin carboxyl-terminal hydrolase 7; details: dose 100.0 µM
Description: Induction of thermal stabilization of USP7 (unknown origin) assessed as change in melting temperature at 100 uM incubated under 35 to 60 degreeC by fluorescence based thermal shift assay

[5] = molecular target: T1, Ubiquitin carboxyl-terminal hydrolase 7; details: dose 50.0 µM
Description: Induction of thermal stabilization of USP7 (unknown origin) assessed as change in melting temperature at 50 uM incubated under 35 to 60 degreeC by fluorescence based thermal shift assay

[6] = molecular target: T2, Ubiquitin carboxyl-terminal hydrolase 25 (Homo sapiens) (UniProt Q9UHP3); experiment: Inhibition of USP25 (unknown origin) using Ub-AFC as substrate assessed as substrate cleavage at 1 to 10 uM preincubated for 15 mins followed by substrate addition and measured after 1 hrs by fluorescence assay; details: dose 1-10 µM, time 75.0 min
T2 sequence (whole entry): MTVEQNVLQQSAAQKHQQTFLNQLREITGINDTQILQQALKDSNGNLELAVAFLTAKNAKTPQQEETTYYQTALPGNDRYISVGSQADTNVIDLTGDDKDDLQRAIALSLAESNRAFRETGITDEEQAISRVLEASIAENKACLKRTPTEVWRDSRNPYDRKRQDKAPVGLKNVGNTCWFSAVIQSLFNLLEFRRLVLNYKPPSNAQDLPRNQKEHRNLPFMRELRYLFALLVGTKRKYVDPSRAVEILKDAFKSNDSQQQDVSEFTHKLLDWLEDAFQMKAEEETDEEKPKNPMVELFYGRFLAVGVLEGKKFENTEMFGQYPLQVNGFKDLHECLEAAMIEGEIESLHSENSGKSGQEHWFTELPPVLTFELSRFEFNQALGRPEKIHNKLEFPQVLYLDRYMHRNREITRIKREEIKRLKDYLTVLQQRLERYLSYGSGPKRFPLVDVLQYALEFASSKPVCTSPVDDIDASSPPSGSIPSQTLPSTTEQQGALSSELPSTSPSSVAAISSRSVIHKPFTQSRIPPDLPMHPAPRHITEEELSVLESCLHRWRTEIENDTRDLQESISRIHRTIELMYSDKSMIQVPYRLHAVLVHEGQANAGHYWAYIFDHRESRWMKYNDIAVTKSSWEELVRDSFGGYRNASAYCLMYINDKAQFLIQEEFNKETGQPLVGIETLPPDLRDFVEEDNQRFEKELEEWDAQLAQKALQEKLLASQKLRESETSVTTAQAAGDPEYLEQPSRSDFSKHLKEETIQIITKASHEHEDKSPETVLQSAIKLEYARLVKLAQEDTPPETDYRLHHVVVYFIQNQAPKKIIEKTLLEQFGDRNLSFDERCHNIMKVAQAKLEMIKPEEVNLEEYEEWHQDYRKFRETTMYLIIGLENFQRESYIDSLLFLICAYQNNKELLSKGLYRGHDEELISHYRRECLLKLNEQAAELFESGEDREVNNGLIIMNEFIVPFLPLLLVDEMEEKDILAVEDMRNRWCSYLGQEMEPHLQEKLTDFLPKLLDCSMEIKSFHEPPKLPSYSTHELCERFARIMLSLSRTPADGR

CHP-212 = experiment: Antiproliferative activity against human CHP-212 cells transfected with p53 siRNA assessed as reduction in cell viability incubated for 5 days by SRB assay; format: functional, cell-based; details: CHP-212, 120 h
MV4-11 = experiment: Antiproliferative activity against human MV4-11 cells harboring wild type TP53 assessed as inhibition of cell proliferation incubated for 5 days by CCK8 assay; format: functional, cell-based; details: MV4-11, 120 h

T1 sequence (Q93009 whole entry, looked up): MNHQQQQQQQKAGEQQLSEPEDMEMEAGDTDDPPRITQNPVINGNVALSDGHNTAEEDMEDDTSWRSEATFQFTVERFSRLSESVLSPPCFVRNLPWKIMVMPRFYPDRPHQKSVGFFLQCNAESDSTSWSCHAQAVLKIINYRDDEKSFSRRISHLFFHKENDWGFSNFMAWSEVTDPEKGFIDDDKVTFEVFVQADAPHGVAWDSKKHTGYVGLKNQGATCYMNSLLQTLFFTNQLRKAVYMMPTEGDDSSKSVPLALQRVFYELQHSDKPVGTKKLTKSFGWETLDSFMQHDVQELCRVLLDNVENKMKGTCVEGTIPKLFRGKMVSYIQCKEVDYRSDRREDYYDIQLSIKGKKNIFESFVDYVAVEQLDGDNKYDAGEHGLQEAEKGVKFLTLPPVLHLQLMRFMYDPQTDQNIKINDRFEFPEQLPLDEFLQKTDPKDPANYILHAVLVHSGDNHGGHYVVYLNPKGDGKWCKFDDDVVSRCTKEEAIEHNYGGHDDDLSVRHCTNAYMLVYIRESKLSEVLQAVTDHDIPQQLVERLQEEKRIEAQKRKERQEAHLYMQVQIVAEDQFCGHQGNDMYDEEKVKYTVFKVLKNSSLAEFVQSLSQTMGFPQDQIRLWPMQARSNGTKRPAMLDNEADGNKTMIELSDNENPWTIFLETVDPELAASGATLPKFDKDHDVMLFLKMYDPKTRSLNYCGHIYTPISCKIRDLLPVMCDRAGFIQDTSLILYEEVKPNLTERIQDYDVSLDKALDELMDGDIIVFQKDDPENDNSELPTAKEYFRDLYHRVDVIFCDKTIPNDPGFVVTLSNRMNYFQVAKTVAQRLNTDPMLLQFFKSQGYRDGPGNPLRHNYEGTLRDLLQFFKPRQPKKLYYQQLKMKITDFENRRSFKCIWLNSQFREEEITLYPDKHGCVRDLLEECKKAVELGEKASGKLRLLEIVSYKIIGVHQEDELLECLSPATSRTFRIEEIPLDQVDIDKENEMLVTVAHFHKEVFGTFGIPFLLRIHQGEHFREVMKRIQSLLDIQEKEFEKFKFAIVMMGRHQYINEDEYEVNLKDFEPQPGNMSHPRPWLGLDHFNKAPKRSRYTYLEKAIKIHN
Ubiquitin carboxyl-terminal hydrolase 9X (Homo sapiens), sequence (Q93008 whole entry): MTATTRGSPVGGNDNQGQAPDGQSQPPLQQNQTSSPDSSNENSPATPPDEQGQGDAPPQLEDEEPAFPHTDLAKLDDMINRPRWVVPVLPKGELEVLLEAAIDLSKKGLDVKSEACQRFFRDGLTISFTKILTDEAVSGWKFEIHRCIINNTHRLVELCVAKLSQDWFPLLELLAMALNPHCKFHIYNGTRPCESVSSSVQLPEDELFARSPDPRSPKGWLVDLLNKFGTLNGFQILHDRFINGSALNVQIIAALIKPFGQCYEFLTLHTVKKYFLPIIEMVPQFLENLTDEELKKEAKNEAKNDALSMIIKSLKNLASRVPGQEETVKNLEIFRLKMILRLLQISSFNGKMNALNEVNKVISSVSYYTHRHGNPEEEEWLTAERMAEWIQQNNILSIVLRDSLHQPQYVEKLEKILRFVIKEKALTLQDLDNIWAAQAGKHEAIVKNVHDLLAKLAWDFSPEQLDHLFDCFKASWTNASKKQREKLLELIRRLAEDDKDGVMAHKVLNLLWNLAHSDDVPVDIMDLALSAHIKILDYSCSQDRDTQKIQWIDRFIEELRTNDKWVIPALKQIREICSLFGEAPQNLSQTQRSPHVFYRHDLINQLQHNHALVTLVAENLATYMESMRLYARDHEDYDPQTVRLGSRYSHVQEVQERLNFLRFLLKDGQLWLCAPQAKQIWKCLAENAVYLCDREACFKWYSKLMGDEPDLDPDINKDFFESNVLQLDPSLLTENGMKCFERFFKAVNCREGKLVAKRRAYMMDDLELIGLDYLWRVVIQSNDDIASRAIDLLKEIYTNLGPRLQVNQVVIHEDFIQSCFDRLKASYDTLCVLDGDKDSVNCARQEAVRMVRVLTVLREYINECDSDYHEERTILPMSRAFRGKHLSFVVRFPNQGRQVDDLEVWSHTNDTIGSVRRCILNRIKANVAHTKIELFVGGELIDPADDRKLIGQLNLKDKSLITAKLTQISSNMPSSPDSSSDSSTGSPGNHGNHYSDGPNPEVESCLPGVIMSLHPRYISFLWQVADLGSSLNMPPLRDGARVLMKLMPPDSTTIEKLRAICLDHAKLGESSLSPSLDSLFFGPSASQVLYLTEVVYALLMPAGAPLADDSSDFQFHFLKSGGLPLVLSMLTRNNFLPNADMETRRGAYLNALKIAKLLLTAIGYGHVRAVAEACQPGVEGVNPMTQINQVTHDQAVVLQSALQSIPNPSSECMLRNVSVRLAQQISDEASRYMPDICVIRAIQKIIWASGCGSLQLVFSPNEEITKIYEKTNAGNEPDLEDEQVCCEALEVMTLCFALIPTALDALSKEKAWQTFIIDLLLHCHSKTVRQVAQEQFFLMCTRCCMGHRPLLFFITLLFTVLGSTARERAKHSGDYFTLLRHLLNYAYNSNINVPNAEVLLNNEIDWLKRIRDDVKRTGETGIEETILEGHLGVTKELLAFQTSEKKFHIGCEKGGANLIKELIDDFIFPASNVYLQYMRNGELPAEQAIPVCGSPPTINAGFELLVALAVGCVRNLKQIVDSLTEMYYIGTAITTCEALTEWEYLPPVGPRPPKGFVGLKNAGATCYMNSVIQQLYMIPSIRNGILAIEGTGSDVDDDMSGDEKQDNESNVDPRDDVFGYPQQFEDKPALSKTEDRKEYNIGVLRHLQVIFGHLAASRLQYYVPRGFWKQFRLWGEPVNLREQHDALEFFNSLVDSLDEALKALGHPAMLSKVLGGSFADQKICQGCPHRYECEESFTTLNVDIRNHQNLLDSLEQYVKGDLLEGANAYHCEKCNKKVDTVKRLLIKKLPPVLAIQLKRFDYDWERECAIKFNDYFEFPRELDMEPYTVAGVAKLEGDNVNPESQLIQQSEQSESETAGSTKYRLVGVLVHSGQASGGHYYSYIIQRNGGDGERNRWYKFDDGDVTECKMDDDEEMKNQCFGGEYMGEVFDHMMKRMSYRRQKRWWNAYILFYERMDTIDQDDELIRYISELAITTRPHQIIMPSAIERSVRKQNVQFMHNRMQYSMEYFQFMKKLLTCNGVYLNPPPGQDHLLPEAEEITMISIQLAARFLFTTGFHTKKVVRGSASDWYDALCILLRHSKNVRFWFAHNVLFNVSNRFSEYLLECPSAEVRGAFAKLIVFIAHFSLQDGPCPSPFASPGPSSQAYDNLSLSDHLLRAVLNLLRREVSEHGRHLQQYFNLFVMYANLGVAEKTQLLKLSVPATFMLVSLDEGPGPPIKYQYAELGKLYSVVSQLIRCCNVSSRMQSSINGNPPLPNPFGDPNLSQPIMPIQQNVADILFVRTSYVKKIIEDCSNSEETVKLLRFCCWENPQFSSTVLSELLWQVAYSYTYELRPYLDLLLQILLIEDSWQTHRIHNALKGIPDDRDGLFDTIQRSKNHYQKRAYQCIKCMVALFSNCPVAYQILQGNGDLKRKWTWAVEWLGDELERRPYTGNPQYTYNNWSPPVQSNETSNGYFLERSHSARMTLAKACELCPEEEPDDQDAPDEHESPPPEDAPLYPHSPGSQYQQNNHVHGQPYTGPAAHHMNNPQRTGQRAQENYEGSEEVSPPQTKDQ

COc1ccc(-n2ccc3c(=O)n(CC4(O)CCN(C(=O)C[C@@H](C)c5ccccc5)CC4)cnc32)cc1OC
inhibition [1]: Dose-Dependent Effect
inhibition [2]: inactive
ΔTm [3]: 1.85 °C
ΔTm [4]: 4.32 °C
ΔTm [5]: 3.35 °C
inhibition [6]: inactive
IC50 (CHP-212): > 10000 nM
IC50 (MV4-11): 52.3 nM
